# Assay results reported in US20220062240A1, “METHODS OF TREATING CANCER USING A CLK INHIBITOR” (BioSplice Therapeutics, Inc., priority 2018, published 2022).
# Where two headings read alike, the source gives them in different places.
# Columns and labels:
# [1] = system: pancreatic cancer (8 cell lines); assay: CellTiter-Glo Viability Assay, pancreatic cancer; type: cell-based; conditions: Homo sapiens, inhibition of cancer cell proliferation
# CLK2 = target: T1, CLK2 (Homo sapiens, UniProt P49760); assay: CLK2 kinase activity assay (Z-lyte, Ser/Thr 6 peptide); type: biochemical; conditions: recombinant CLK2 kinase, ATP 60 μM; read-out: EC50
# T1 construct: purchased Thermo Fisher (Life Technologies), Z'-LYTE Kinase Assay Kits
# T1 sequence (P49760 whole entry): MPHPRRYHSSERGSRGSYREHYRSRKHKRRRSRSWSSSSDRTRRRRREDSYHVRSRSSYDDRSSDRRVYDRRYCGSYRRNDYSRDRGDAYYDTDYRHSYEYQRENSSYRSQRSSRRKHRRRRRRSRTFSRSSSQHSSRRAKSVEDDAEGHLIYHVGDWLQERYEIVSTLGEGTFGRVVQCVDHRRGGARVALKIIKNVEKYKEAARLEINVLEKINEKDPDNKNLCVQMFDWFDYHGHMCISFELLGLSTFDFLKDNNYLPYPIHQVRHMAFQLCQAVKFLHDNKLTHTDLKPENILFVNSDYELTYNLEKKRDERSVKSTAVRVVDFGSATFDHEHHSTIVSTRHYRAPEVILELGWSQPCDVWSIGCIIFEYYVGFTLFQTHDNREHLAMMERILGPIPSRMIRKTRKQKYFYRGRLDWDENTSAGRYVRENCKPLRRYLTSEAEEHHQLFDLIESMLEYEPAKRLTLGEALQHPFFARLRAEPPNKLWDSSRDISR
# Procedure: All reactions were performed in duplicate.
# [2] = system: ovarian cancer (4 cell lines); assay: CellTiter-Glo Viability Assay, ovarian cancer; type: cell-based; conditions: Homo sapiens, inhibition of cancer cell proliferation
# [3] = system: colorectal cancer (6 cell lines); assay: CellTiter-Glo Viability Assay, colorectal cancer; type: cell-based; conditions: Homo sapiens, inhibition of cancer cell proliferation
# [4] = system: haematopoietic & lymphoid tumors (13 cell lines); assay: CellTiter-Glo Viability Assay, haematopoietic & lymphoid tumors; type: cell-based; conditions: Homo sapiens, inhibition of cancer cell proliferation
# HCC1599 = assay: CellTiter-Glo Viability Assay, breast cancer; type: cell-based; conditions: Homo sapiens, 96 h; HCC1599, breast cancer, four days; read-out: EC50
# MCF7 = assay: CellTiter-Glo Viability Assay, breast cancer; type: cell-based; conditions: Homo sapiens, 96 h; MCF7, breast cancer, four days; read-out: EC50
# MDA-MB-231-Luc = assay: CellTiter-Glo Viability Assay, breast cancer; type: cell-based; conditions: Homo sapiens, 96 h; MDA-MB-231-Luc, breast cancer, four days; read-out: EC50
# ZR-75-1 = assay: CellTiter-Glo Viability Assay, breast cancer; type: cell-based; conditions: Homo sapiens, 96 h; ZR-75-1, breast cancer, four days; read-out: EC50
# CAMA1 = assay: CellTiter-Glo Viability Assay, breast cancer; type: cell-based; conditions: Homo sapiens, CAMA-1, 96 h; CAMA1, breast cancer, four days; read-out: EC50
# BT-549 = assay: CellTiter-Glo Viability Assay, breast cancer; type: cell-based; conditions: Homo sapiens, 96 h; BT-549, breast cancer, four days; read-out: EC50
# DU4475 = assay: CellTiter-Glo Viability Assay, breast cancer; type: cell-based; conditions: Homo sapiens, DU-4475, 96 h; DU4475, breast cancer, four days; read-out: EC50
# T47D = assay: CellTiter-Glo Viability Assay, breast cancer; type: cell-based; conditions: Homo sapiens, 96 h, breast cancer, four days, read-out: EC50
# [5] = system: prostate cancer (5 cell lines); assay: CellTiter-Glo Viability Assay, prostate cancer; type: cell-based; conditions: Homo sapiens
# [6] = system: lung cancer (4 cell lines); assay: CellTiter-Glo Viability Assay, lung cancer; type: cell-based; conditions: Homo sapiens, inhibition of cancer cell proliferation
# CLK3 = CLK3 (Homo sapiens, UniProt P49761); assay: CLK3 kinase activity assay (Z-lyte, Ser/Thr 18 peptide)
# Sequence of CLK3 (P49761 whole entry): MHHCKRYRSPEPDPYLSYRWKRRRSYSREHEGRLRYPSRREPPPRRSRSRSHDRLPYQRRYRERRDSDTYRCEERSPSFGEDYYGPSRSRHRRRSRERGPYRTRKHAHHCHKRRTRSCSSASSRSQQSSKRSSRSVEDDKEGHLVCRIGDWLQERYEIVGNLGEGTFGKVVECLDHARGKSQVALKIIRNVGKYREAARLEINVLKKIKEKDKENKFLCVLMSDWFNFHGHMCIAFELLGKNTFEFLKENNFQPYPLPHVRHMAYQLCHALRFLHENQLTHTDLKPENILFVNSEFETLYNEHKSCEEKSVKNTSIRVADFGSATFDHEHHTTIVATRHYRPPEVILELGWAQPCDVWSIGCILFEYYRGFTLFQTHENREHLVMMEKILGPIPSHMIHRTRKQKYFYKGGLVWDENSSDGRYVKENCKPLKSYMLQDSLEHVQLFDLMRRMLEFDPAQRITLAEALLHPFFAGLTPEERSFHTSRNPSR
# all 50 cell lines = assay: CellTiter-Glo Viability Assay, average across all cell lines; type: cell-based; conditions: Homo sapiens; across all 50 cell lines; read-out: average EC50 for inhibition of cancer cell proliferation
# How it was run: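 4-day proliferation, 37° C/5% CO2; 300-3,000 cells/well; compound in duplicate vs DMSO controls. Panel: breast, colorectal, heme/lymphoid, liver, lung, ovarian, pancreatic, prostate lines. Read-out: CellTiter-Glo ATP luminescence, EC50 from dose-response.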
# [7] = system: liver cancer (3 cell lines); assay: CellTiter-Glo Viability Assay, liver cancer; type: cell-based; conditions: Homo sapiens, inhibition of cancer cell proliferation
smiles,measurement,setting,value
O=C1CCc2cccc(c2)-c2cncc3[nH]c(nc23)-c2n[nH]c3ccc(cc23)-c2cncc(c2)N1 [Compound 55],EC50,"[1]; BXPC-3, BxPC3 cell line, read-out: Pancreatic cancer, EC50 BxPC3",> 3.5 µM
same,EC50,"[1]; CAPAN-1, Capan1 cell line, read-out: Pancreatic cancer, EC50 Capan1",> 3.5 µM
same,EC50,"[1]; Capan-2, Capan2 cell line, read-out: Pancreatic cancer, EC50 Capan2",> 3.5 µM
same,EC50,"[1]; MIA PaCa-2 cell line, read-out: Pancreatic cancer, EC50 MIA PaCa-2",1.69 µM
same,EC50,"[1]; PANC 05.04 cell line, read-out: Pancreatic cancer, EC50 PANC 05.04",> 3.5 µM
same,EC50,"[1]; PANC-1 cell line, read-out: Pancreatic cancer, EC50 PANC-1",> 3.5 µM
same,EC50,"[1]; UPAFII cell line, read-out: Pancreatic cancer, EC50 UPAFII",> 3.5 µM
same,EC50,CLK2,0.0019 µM
same,EC50,"[2]; PA-1, PA1 cell line, read-out: Ovarian cancer, EC50 (μM) PA1",> 3.5 µM
same,EC50,"[2]; TOV112D, TOV-112D cell line, read-out: Ovarian cancer, EC50 (μM) TOV-112D",> 3.5 µM
same,EC50,"[2]; OV-90 cell line, read-out: Ovarian cancer, EC50 (μM) OV-90",> 3.5 µM
same,EC50,"[2]; OVCAR-3 cell line, read-out: Ovarian cancer, EC50 (μM) OVCAR-3",0.766 µM
same,EC50,"[3]; HCT-116, HCT116 cell line, read-out: Colorectal cancer, EC50 (μM) HCT116",> 3.5 µM
same,EC50,"[3]; HT-29, HT29 cell line, read-out: Colorectal cancer, EC50 (μM) HT29",> 3.5 µM
same,EC50,"[3]; SW-620, SW620 cell line, read-out: Colorectal cancer, EC50 (μM) SW620",1.97 µM
same,EC50,"[3]; DLD-1 cell line, read-out: Colorectal cancer, EC50 (μM) DLD-1",> 3.5 µM
same,EC50,"[3]; SW48 cell line, read-out: Colorectal cancer, EC50 (μM) SW48",> 3.5 µM
same,EC50,"[3]; SW480 cell line, read-out: Colorectal cancer, EC50 (μM) SW480",> 3.5 µM
same,EC50,"[4]; DND41, DND-41 cell line, read-out: Haematopoietic & Lymphoid tumors, EC50 (μM) DND-41",0.776 µM
same,EC50,"[4]; MV4-11, MV-4-11 cell line, read-out: Haematopoietic & Lymphoid tumors, EC50 (μM) MV-4-11",0.094 µM
same,EC50,"[4]; Rec1, REC-1 cell line, read-out: Haematopoietic & Lymphoid tumors, EC50 (μM) REC-1",> 3.5 µM
same,EC50,"[4]; SU-DHL-4, SUDHL4 cell line, read-out: Haematopoietic & Lymphoid tumors, EC50 (μM) SUDHL4",0.983 µM
same,EC50,"[4]; HL-60 cell line, read-out: Haematopoietic & Lymphoid tumors, EC50 (μM) HL-60",> 3.5 µM
same,EC50,"[4]; JM1 cell line, read-out: Haematopoietic & Lymphoid tumors, EC50 (μM) JM1",0.952 µM
same,EC50,"[4]; JURKAT, Clone E6-1 cell line, read-out: Haematopoietic & Lymphoid tumors, EC50 (μM) JURKAT, Clone E6-1",> 3.5 µM
same,EC50,"[4]; JeKo-1 cell line, read-out: Haematopoietic & Lymphoid tumors, EC50 (μM) JeKo-1",0.357 µM
same,EC50,"[4]; KASUMI-1 cell line, read-out: Haematopoietic & Lymphoid tumors, EC50 (μM) KASUMI-1",0.711 µM
same,EC50,"[4]; Loucy cell line, read-out: Haematopoietic & Lymphoid tumors, EC50 (μM) Loucy",1.36 µM
same,EC50,"[4]; MOLT-4 cell line, read-out: Haematopoietic & Lymphoid tumors, EC50 (μM) MOLT-4",> 3.5 µM
same,EC50,"[4]; TF-1 cell line, read-out: Haematopoietic & Lymphoid tumors, EC50 (μM) TF-1",> 3.5 µM
same,EC50,"[4]; TOLEDO cell line, read-out: Haematopoietic & Lymphoid tumors, EC50 (μM) TOLEDO",0.869 µM
same,EC50,HCC1599,0.86 µM
same,EC50,MCF7,> 3.5 µM
same,EC50,MDA-MB-231-Luc,> 3.5 µM
same,EC50,ZR-75-1,> 3.5 µM
same,EC50,CAMA1,> 3.5 µM
same,EC50,BT-549,0.812 µM
same,EC50,DU4475,2.8 µM
same,EC50,T47D,> 3.5 µM
same,EC50,"[5]; DU-145, read-out: Prostate cancer EC50 Du-145",> 3.5 µM
same,EC50,"[5]; PC-3, PC3 cell line, inhibition of cancer cell proliferation, read-out: Prostate cancer EC50 PC3",3.36 µM
same,EC50,"[5]; 22Rv1 cell line, inhibition of cancer cell proliferation, read-out: Prostate cancer EC50 22Rv1",> 3.5 µM
same,EC50,"[5]; LNCap clone FGC cell line, inhibition of cancer cell proliferation, read-out: Prostate cancer EC50 LNCap clone FGC",> 3.5 µM
same,EC50,"[5]; VCaP (Sigma) cell line, inhibition of cancer cell proliferation, read-out: Prostate cancer EC50 VCaP (Sigma)",> 3.5 µM
same,EC50,"[6]; A-427, A427 cell line, read-out: Lung cancer, EC50 (μM) A427",3.1 µM
same,EC50,"[6]; HCC78, HCC-78 cell line, read-out: Lung cancer, EC50 (μM) HCC-78",> 3.5 µM
same,EC50,"[6]; NCI-H460 cell line, read-out: Lung cancer, EC50 (μM) NCI-H460",> 3.5 µM
same,EC50,"[6]; NCI-H522 cell line, read-out: Lung cancer, EC50 (μM) NCI-H522",2.47 µM
same,EC50,CLK3,0.0281 µM
same,EC50,all 50 cell lines,6.89 µM
same,EC50,"[7]; SNU-398, SNU398 cell line, read-out: Liver cancer, EC50 SNU398",0.605 µM
same,EC50,"[7]; HEPG2 cell line, read-out: Liver cancer, EC50 HEPG2",> 3.5 µM
same,EC50,"[7]; PLC/PRF/5 cell line, read-out: Liver cancer, EC50 PLC/PRF/5",> 3.5 µM
